Our source for the IC50 values is US11447487B2, “Spiroheptanyl hydantoins as rock inhibitors” (BRISTOL-MYERS SQUIBB COMPANY, priority 2017, dated 2022).

This experiment deals with ROCK2 (Homo sapiens (Human), UniProt O75116). Nature of the experiment: ROCK assay (Caliper LABCHIP peptide phosphorylation). The format is biochemical. The note with it: 5 μM ATP, 1.5 μM peptide substrate. As for the experimental part: The effectiveness of compounds of the present invention as ROCK inhibitors can be determined in a 30 μL assay containing 20 mM HEPES, pH 7.5, 20 mM MgCl2, 0.015% Brij-35, 4 mM DTT, 5 μM ATP and 1.5 μM peptide substrate (FITC-AHA-AKRRRLSSLRA-OH) (SEQ ID No. 1). Compounds were dissolved in DMSO so that the final concentration of DMSO was <2%, and the reaction was initiated with Rho kinase variants. After incubation, the reaction was terminated by the addition of EDTA and the phosphorylated and non-phosphorylated peptides separated using a LABCHIP® 3000 Reader (Caliper Life Sciences). […] Compounds were tested in dose-response format, and the inhibition of kinase activity was calculated at each concentration of compound. The inhibition data were fit using a curve-fitting program to determine the IC50; i.e., the concentration of compound required to inhibit 50% of kinase activity. Representative Examples were tested in the ROCK assay described above and found having ROCK inhibitory activity. A range of ROCK inhibitory activity (IC50 values) of ≤50 μM (50000 nM) was observed. Table A below lists the ROCK IC50 values measured for the following examples.
ROCK2, sequence (O75116 whole entry, species assumed): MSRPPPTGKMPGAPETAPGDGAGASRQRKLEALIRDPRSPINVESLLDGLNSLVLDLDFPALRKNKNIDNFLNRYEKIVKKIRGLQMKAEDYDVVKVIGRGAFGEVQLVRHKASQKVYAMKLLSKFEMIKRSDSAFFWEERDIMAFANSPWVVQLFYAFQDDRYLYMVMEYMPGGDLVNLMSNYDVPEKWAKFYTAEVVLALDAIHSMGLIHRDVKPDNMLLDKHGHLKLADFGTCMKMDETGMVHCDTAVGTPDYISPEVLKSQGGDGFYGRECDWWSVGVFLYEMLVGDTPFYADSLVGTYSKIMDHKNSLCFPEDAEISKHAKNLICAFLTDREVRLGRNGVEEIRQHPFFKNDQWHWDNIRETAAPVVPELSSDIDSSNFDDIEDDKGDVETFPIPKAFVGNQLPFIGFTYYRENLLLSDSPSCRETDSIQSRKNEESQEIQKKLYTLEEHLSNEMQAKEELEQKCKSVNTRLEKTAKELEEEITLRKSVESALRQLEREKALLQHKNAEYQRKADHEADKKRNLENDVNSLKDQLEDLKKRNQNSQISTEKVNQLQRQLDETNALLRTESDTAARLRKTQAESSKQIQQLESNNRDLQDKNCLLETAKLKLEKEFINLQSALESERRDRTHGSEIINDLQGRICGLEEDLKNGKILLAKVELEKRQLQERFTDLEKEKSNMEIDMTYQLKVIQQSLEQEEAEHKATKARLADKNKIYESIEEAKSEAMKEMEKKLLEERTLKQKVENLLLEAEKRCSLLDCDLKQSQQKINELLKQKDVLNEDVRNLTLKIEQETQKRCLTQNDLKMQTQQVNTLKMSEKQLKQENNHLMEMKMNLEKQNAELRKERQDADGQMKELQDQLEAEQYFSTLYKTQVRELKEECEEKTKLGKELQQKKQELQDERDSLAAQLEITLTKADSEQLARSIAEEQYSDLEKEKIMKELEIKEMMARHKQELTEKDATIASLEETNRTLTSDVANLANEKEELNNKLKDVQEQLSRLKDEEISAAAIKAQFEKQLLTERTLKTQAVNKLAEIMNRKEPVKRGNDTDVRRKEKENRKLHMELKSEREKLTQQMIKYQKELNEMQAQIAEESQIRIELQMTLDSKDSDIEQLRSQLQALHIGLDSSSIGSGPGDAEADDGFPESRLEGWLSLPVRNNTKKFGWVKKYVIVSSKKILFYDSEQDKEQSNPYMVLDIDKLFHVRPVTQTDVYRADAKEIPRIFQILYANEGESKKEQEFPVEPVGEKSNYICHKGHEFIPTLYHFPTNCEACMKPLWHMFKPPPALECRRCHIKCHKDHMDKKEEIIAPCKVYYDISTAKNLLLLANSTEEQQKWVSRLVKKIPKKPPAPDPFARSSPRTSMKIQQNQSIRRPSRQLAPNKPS
Take “2-((((R)-6-(4-((1-adamantyl)methyl)-2,5-dioxoimidazolidin-1-yl)spiro[3.3]heptan-2-yl)oxy)nicotinamide [Example 68]”: 17 nM corresponded to half-maximal inhibition (IC50). Next, `NC(=O)c1cccnc1O[C@H]1C[C@]2(C1)C[C@H](N1C(=O)NC(CC3CCCCC3)C1=O)C2` (single isomer, unassigned) [Example 2, 2-{[(αR)-6-[4-(cyclohexyl-methyl)-2,5-dioxoimidazol-idin-1-yl]spiro-[3.3]heptan-2-yl]-oxy}pyridine-3-carboxamide]: 8 nM; `NC(=O)c1cccnc1O[C@H]1C[C@]2(C1)C[C@H](N1C(=O)NC(CCc3ccccc3)C1=O)C2` (single isomer, unassigned) [Example 5, 2-{[(αR)-6-[2,5-dioxo-4-(2-phenylethyl)-imidazolidin-1-yl]spiro[3.3]-heptan-2-yl]oxy}-pyridine-3-carboxamide]: 25 nM. Then `NC(=O)c1cccnc1O[C@H]1C[C@]2(C1)C[C@H](N1C(=O)NC(CC3CCCCC3)C1=O)C2` (single isomer, unassigned) [Example 6, 2-{[(αR)-6-(4-cyclohexylmethyl-2,5-dioxoimidazol-idin-1-yl)spiro-[3.3]heptan-2-yl]-oxy}pyridine-3-carboxamide], with 91 nM. Then `NC(=O)c1cccnc1O[C@H]1C[C@]2(C1)C[C@H](N1C(=O)NC(CCc3ccccc3)C1=O)C2` (single isomer, unassigned) [Example 12, 2-{[(αR)-6-(4-(2-phenylethyl)-2,5-dioxoimidazol-idin-1-yl)spiro-[3.3]heptan-2-yl]oxy}pyridine-3-carboxamide], with 270 nM. Take `CC(C)(C)OC(=O)NCCC1NC(=O)N([C@H]2C[C@@]3(C[C@H](Oc4ncccc4C(N)=O)C3)C2)C1=O` (single isomer, unassigned) [Example 20, tert-butyl N-(2-{2,5-dioxo-1-[(αR)-6-[(3-carbamoylpyridin-2-yl)oxy]spiro-[3.3]heptan-2-yl]-imidazolidin-4-yl}ethyl)carbamate]: the IC50 (in general, the concentration at which inhibition is half-maximal) stood at 1710 nM. The compound `CC(C)(C)OC(=O)NCCC1NC(=O)N([C@H]2C[C@@]3(C[C@H](Oc4ncccc4C(N)=O)C3)C2)C1=O` (single isomer, unassigned) [Example 21, tert-butyl N-(2-{2,5-dioxo-1-[(αR)-6-[(3-carbamoylpyridin-2-yl)oxy]spiro-[3.3]heptan-2-yl]-imidazolidin-4-yl}ethyl)carbamate] registered an IC50 of 2380 nM. This IC50 and that of the compound before are within 1.5-fold of each other. Next, `CCC(CC)CC1NC(=O)N([C@H]2C[C@@]3(C[C@H](Oc4ncccc4C(N)=O)C3)C2)C1=O` (single isomer, unassigned) [Example 38, 2-{[(αR)-6-(4-(2-ethylbutyl)-2,5-dioxoimidazolidin-1-yl]spiro[3.3]-heptan-2-yl]oxy}-pyridine-3-carbox-amide]: 5 nM; `NC(=O)c1cccnc1O[C@H]1C[C@]2(C1)C[C@H](N1C(=O)NC(CC3CCCC3)C1=O)C2` (single isomer, unassigned) [Example 40, 2-{[(αR)-6-[4-(cyclopentyl-methyl)-2,5-dioxo-imidazolidin-1-yl]-spiro[3.3]heptan-2-yl]oxy}pyridine-3-carboxamide]: 14 nM. `NC(=O)c1cccnc1O[C@H]1C[C@]2(C1)C[C@H](N1C(=O)NC(CCCC(F)(F)F)C1=O)C2` (single isomer, unassigned) [Example 42, 2-{[(αR)-6-[2,5-dioxo-4-(4,4,4-trifluorobutyl)-imidazolidin-1-yl]-spiro[3.3]heptan-2-yl]oxy}pyridine-3-carboxamide] gave an IC50 of 22 nM. Next, `NC(=O)c1cccnc1O[C@H]1C[C@]2(C1)C[C@H](N1C(=O)NC(CCC3CCCCCC3)C1=O)C2` (single isomer, unassigned) [Example 43, 2-{[(αR)-6-[4-(2-cycloheptylethyl)-2,5-dioxoimidazol-idin-1-yl]spiro-[3.3]heptan-2-yl]-oxy}pyridine-3-carboxamide]: 23 nM.

As to `NC(=O)c1cccnc1O[C@H]1C[C@]2(C1)C[C@H](N1C(=O)NC(CC(C(F)(F)F)C(F)(F)F)C1=O)C2` (single isomer, unassigned) [Example 47], the IC50 came to 50 nM. This IC50 is about 2.2-fold higher than that of the compound before.

In the case of `CCC(CC)CC1NC(=O)N([C@H]2C[C@@]3(C[C@H](Oc4ncccc4C(N)=O)C3)C2)C1=O` (single isomer, unassigned) [Example 48, 2-{[(αR)-6-[4-(2-ethylbutyl)-2,5-dioxoimidazolidin-1-yl]spiro[3.3]-heptan-2-yl]oxy}-pyridine-3-carbox-amide], the IC50 stood at 56 nM. Next, `NC(=O)c1cccnc1O[C@H]1C[C@]2(C1)C[C@H](N1C(=O)NC(CCOCC(F)(F)F)C1=O)C2` (single isomer, unassigned) [Example 50, 2-{[(αR)-6-{2,5-dioxo-4-[2-(2,2,2-trifluoroethoxy)-ethyl]imidazolidin-3-yl}spiro[3.3]-heptan-2-yl]oxy}-pyridine-3-carbox-amide]: 62 nM; `NC(=O)c1cccnc1O[C@H]1C[C@]2(C1)C[C@H](N1C(=O)NC(CC3CCCC3)C1=O)C2` (single isomer, unassigned) [Example 52]: 160 nM. Then `NC(=O)c1cccnc1O[C@H]1C[C@]2(C1)C[C@H](N1C(=O)NC(CCC3CCCCCC3)C1=O)C2` (single isomer, unassigned) [Example 53, 2-{[(αR)-6-[4-(2-cycloheptylethyl)-2,5-dioxoimidazol-idin-1-yl]spiro-[3.3]-heptan-2-yl]-oxy}pyridine-3-carboxamide], with 171 nM; and `NC(=O)c1cccnc1O[C@H]1C[C@]2(C1)C[C@H](N1C(=O)NC(CC3CCCO3)C1=O)C2` (single isomer, unassigned) [Example 55], with 212 nM; and `NC(=O)c1cccnc1O[C@H]1C[C@]2(C1)C[C@H](N1C(=O)NC(CC(C(F)(F)F)C(F)(F)F)C1=O)C2` (single isomer, unassigned) [Example 56, 2-{[(αR)-6-{2,5-dioxo-4-[3,3,3-trifluoro-2-(trifluoromethyl)-propyl]imidazol-idin-1-yl}spiro-[3.3]heptan-2-yl]-oxy}pyridine-3-carboxamide], with 256 nM. Then `NC(=O)c1cccnc1O[C@H]1C[C@]2(C1)C[C@H](N1C(=O)NC(CCOC(F)(F)F)C1=O)C2` (single isomer, unassigned) [Example 57, 2-{[(αR)-6-{2,5-dioxo-4-[2-(tri-fluoromethoxy)-ethyl]imidazolidin-1-yl}spiro[3.3]-heptan-2-yl]oxy}-pyridine-3-carbox-amide], with 259 nM; and `NC(=O)c1cccnc1O[C@H]1C[C@]2(C1)C[C@H](N1C(=O)NC(CCOC(F)(F)F)C1=O)C2` (single isomer, unassigned) [Example 59, 2-{[(αR)-6-{2,5-dioxo-4-[2-(trifluoromethoxy)-ethyl]imidazolidin-1-yl}spiro[3.3]-heptan-2-yl]oxy}-pyridine-3-carbox-amide], with 303 nM.

For the compound `NC(=O)c1cccnc1O[C@H]1C[C@]2(C1)C[C@H](N1C(=O)NC(CCCC(F)(F)F)C1=O)C2` (single isomer, unassigned) [Example 60, 2-{[(αR)-6-[2,5-dioxo-4-(4,4,4-trifluorobutyl)-imidazolidin-1-yl]-spiro[3.3]heptan-2-yl]oxy}pyridine-3-carboxamide], the midpoint of inhibition, the IC50, lay at 311 nM.

With `NC(=O)c1cccnc1O[C@H]1C[C@]2(C1)C[C@H](N1C(=O)NC(CCOCC(F)(F)F)C1=O)C2` (single isomer, unassigned) [Example 61], the IC50 stood at 378 nM. Next, `NC(=O)c1cccnc1O[C@H]1C[C@]2(C1)C[C@H](N1C(=O)NC(CC3CCCO3)C1=O)C2` (single isomer, unassigned) [Example 64, 2-{[(αR)-6-{2,5-dioxo-4-[(oxolan-2-yl)methyl]-imidazolidin-1-yl}-spiro[3.3]heptan-2-yl]oxy}pyridine-3-carboxamide]: 802 nM; `[H][C@]1(Oc2ncccc2C(N)=O)C[C@]2(C[C@@H](N3C(=O)N[C@@H](CC(C)C)C3=O)C2)C1` (stereo partly shown) [Example 1]: 8 nM; `NC(=O)c1cccnc1OC1CC2(C1)CC(N1C(=O)CN(c3ccccc3)C1=O)C2` (stereo not shown) [Example 3, 2-{[6-(2,5-dioxo-3-phenylimidazol-idin-1-yl)spiro-[3.3]heptan-2-yl]-oxy}pyridine-3-carboxamide]: 9 nM.

Compound `CC(C)(C)C1NC(=O)N([C@H]2C[C@@]3(C[C@H](Oc4ncccc4C(N)=O)C3)C2)C1=O` (stereo partly shown) [Example 7, 2-{[(αR)-6-(4-tert-butyl-2,5-dioxo-imidazolidin-1-yl)spiro[3.3]-heptan-2-yl]oxy}-pyridine-3-carbox-amide] displayed an IC50 of 129 nM. Compared with the last compound, the IC50 is about 14-fold higher. Next, `NC(=O)c1cccnc1O[C@H]1C[C@]2(C1)C[C@H](N1C(=O)NC3(CCCC3)C1=O)C2` (stereo partly shown) [Example 8, 2-{[(αR)-6-{2,4-dioxo-1,3-diaza-spiro[4.4]nonan-3-yl}spiro[3.3]-heptan-2-yl]oxy}-pyridme-3-carbox-amide]: 190 nM.

In turn, `CC(C)(C)OCC1NC(=O)N([C@H]2C[C@@]3(C[C@H](Oc4ncccc4C(N)=O)C3)C2)C1=O` (stereo partly shown) [Example 9, 2-{[(αR)-6-(4-tert-butoxymethyl-2,5-dioxoimidazolidin-1-yl)spiro[3.3]-heptan-2-yl]oxy}-pyridine-3-carbox-amide] came in with an IC50 of 219 nM.
